Our source for the IC50 values is patent US12516056B2, “Compounds for inhibition of janus kinase 1” (MANKIND PHARMA LTD., priority 2019, dated 2026).

For assay [1], the target named is T1, Recombinant JAK3 (Homo sapiens, UniProt P52333).
T1 construct: purchased Carna Biosciences
T1 sequence (P52333 1-1124): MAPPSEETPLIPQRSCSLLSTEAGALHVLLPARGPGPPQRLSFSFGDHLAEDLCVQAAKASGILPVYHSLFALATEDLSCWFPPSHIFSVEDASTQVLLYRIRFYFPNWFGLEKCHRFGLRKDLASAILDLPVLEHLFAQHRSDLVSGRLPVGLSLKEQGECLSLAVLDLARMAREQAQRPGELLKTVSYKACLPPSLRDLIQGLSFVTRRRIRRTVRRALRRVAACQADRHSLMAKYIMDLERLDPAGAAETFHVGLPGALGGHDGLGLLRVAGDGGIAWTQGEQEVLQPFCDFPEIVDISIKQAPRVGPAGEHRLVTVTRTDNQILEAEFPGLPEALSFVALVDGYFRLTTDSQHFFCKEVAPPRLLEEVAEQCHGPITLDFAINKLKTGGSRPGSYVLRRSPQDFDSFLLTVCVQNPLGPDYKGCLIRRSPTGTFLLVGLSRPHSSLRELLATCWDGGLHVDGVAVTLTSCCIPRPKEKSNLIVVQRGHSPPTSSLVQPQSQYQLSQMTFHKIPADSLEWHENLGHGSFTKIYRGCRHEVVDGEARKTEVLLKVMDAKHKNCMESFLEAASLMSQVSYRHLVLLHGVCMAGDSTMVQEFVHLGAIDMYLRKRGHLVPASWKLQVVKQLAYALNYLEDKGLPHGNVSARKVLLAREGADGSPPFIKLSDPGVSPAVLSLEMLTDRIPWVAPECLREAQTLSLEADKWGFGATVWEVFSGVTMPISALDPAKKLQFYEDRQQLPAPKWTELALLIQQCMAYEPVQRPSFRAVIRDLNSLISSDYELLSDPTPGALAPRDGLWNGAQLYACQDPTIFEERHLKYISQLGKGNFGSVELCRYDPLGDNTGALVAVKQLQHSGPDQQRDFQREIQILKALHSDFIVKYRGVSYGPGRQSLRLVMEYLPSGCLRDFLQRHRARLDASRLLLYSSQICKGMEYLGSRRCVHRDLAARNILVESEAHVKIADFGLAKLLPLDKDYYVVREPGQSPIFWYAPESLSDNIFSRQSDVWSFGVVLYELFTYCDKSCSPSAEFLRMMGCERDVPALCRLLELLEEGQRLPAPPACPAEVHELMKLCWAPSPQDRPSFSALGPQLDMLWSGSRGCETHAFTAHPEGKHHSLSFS
The assay can be described thus: JAK biochemical assay (LANCE Ultra TR-FRET), JAK3. To be noted: recombinant JAK3, TR-FRET; read-out: Biochemical Assay (μM) JAK3. In outline: (§1)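 TR-FRET read-out of ULight substrate phosphorylation by recombinant kinase gives % inhibition relative to vehicle. The assay buffer is HEPES pH 7.5 with EGTA, MgCl2, DTT and Tween-20.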

In assay [2] the target is T2, Recombinant JAK1 (Homo sapiens, UniProt P23458).
T2 construct: purchased Carna Biosciences
The assay can be described thus: JAK biochemical assay (LANCE Ultra TR-FRET), JAK1. As to conditions: recombinant JAK1, TR-FRET; read-out: Biochemical Assay (μM) JAK1. In outline:
as §1
(In general: Time-resolved FRET reads energy transfer from a long-lived donor to a nearby acceptor.)

For assay [3], the system named is STAT5 phosphorylation by GMCSF in TF-1 cells. The assay can be described thus: JAK cellular assay: STAT5 phosphorylation by GMCSF in TF-1 cells (HTRF). The class given is cell-based. As to conditions: TF-1 cells, GMCSF 5 ng/ml, pSTAT5 HTRF, read-out: Cell Based Assay (μM) TF-1/GMCSF/pSTAT5. In a few lines: (§2)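 TF-1 cells starved overnight in low-serum OptiMEM, then 120,000/well in RPMI, preincubated with compound 30 min at 37 °C (0.2% DMSO final). Stimulation 20 min with IL-6 30 ng/ml (pSTAT3) or GMCSF 5 ng/ml (pSTAT5); lysate phospho-STAT by HTRF, unstimulated background subtracted.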

Assay [4] has as its target T3, Recombinant JAK2 (Homo sapiens, UniProt O60674).
T3 construct: purchased Carna Biosciences
In words: JAK biochemical assay (LANCE Ultra TR-FRET), JAK2. To be noted: recombinant JAK2, TR-FRET; read-out: Biochemical Assay (μM) JAK2. In a few lines: as §1

Assay [5] addresses T4, Recombinant TYK2 (Homo sapiens, UniProt P29597).
T4 construct: purchased Carna Biosciences
In words: JAK biochemical assay (LANCE Ultra TR-FRET), TYK2. As to conditions: recombinant TYK2, TR-FRET; read-out: Biochemical Assay (μM) TYK2. In a few lines: as §1

The test system of assay [6] is STAT3 phosphorylation by IL-6 in TF-1 cells. In words: JAK cellular assay: STAT3 phosphorylation by IL-6 in TF-1 cells (HTRF). The class given is cell-based. As to conditions: IL-6 30 ng/ml, pSTAT3 HTRF, read-out: Cell Based Assay (μM) TF-1/IL-6/pSTAT3. In a few lines:
as §2

Structures are written as SMILES. Read-outs that look alike come from different tables or passages of the source.

T2 sequence (P23458 whole entry): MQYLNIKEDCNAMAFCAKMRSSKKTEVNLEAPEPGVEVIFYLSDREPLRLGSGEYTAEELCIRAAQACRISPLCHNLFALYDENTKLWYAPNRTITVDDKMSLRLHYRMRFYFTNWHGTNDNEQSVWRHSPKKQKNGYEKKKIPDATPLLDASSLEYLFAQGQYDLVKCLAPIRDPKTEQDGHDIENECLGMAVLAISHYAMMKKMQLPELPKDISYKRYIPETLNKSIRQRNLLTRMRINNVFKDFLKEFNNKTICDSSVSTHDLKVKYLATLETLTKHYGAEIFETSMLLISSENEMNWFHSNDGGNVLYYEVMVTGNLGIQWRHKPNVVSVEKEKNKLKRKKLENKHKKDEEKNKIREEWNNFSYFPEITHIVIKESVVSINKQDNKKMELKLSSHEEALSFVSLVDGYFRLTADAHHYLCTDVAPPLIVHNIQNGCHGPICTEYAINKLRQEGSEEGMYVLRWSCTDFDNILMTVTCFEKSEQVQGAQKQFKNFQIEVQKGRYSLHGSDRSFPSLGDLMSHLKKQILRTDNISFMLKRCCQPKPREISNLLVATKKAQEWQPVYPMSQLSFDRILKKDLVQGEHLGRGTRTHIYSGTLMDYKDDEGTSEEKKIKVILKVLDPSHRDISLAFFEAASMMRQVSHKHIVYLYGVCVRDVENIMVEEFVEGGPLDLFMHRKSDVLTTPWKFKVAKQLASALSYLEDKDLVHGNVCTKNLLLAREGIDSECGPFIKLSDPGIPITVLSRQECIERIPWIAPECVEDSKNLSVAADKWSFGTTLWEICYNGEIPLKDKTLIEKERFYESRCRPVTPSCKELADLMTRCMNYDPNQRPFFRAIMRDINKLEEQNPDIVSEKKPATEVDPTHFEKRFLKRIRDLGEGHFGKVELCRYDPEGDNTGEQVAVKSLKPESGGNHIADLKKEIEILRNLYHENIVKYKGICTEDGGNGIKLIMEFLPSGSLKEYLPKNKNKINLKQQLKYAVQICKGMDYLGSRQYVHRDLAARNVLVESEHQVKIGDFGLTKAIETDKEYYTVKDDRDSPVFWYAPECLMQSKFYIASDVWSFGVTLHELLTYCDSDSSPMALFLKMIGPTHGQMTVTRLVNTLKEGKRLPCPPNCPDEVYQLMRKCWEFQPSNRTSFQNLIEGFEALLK
T4 sequence (P29597 whole entry): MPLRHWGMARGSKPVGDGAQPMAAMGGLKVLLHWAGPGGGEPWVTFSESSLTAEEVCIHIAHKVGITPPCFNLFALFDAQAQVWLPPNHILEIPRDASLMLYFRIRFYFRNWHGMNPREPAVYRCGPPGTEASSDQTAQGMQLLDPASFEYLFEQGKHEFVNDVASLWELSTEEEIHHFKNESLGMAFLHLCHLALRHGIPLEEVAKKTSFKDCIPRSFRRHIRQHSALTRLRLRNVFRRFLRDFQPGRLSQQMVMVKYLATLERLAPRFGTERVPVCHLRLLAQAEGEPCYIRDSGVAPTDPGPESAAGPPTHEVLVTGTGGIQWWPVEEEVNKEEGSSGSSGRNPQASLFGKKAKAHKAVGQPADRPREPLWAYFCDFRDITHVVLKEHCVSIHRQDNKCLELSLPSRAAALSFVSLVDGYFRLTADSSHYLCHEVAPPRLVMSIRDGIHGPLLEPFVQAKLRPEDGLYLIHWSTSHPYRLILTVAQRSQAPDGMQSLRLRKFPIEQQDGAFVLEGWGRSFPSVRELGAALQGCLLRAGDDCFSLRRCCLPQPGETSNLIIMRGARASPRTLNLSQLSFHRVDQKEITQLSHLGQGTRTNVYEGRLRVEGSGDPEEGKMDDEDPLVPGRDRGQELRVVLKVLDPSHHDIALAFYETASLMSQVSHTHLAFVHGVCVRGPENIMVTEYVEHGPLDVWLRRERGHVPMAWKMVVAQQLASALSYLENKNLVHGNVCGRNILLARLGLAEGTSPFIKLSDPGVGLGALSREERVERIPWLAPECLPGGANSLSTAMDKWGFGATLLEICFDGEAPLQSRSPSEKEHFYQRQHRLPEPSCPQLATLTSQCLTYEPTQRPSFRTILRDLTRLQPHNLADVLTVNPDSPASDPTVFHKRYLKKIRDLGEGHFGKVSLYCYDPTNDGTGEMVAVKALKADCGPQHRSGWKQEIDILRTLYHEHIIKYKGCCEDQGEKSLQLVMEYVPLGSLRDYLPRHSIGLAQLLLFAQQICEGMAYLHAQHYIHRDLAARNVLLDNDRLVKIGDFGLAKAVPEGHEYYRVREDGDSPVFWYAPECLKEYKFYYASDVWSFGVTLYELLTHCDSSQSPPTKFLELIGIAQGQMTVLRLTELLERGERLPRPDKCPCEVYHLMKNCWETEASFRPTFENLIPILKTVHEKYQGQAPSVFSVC
T3 sequence (O60674 whole entry): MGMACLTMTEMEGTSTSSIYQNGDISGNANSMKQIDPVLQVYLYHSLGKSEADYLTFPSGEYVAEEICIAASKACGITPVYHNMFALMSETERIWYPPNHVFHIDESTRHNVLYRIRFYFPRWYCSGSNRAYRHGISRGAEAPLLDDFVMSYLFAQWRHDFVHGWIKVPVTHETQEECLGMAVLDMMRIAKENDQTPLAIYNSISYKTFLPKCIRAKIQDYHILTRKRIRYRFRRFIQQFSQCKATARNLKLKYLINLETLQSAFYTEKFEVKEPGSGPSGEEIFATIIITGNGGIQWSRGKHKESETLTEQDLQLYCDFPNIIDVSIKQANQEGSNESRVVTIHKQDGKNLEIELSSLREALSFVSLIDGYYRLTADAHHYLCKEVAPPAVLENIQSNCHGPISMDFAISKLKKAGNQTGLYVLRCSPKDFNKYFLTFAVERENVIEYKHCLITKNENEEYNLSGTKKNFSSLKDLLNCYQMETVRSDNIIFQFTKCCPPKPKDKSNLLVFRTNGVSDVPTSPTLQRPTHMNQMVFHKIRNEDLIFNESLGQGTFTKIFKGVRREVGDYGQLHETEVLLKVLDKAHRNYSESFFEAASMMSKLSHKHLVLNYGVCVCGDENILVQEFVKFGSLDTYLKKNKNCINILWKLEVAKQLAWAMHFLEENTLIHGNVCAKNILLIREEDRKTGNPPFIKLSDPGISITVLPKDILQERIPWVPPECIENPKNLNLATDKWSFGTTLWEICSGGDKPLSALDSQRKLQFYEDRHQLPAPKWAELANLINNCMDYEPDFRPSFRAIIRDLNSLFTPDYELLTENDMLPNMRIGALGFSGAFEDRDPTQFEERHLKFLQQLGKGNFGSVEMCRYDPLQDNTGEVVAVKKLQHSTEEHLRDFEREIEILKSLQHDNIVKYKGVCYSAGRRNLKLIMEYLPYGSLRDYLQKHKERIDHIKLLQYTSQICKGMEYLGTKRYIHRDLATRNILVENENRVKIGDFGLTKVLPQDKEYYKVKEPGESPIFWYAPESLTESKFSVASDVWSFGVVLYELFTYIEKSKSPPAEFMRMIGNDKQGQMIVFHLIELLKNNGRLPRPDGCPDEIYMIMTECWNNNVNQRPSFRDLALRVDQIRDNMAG

In the case of `CC(CC#N)NC(=O)n1cc(-c2ccnc3[nH]c(=O)[nH]c23)cn1` (stereo not drawn) [Example 1052, N-(1-cyanopropan-2-yl)-4-(2,3-dihydro-2-oxo-1H-imidazo[4,5-b]pyridin-7-yl)-1H-pyrazole-1-carboxamide], the IC50 in assay [1] was over 0.5 µM; in assay [2], under 0.5 µM; in assay [3], over 10 µM; in assay [4], under 0.5 µM; in assay [5], under 0.5 µM; in assay [6] (TF-1 cells), over 10 µM.
As for `CC(CC#N)NC(=O)n1cc(-c2ccnc3[nH]c(=O)[nH]c23)cn1` (stereo not drawn) [Example 1046, N-(1-cyanopropan-2-yl)-4-(2,3-dihydro-2-oxo-1H-imidazo[4,5-b]pyridin-7-yl)-1H-pyrazole-1-carboxamide], the IC50 was under 0.5 µM in assay [1]; under 0.5 µM in assay [2]; over 10 µM in assay [3] (Homo sapiens); under 0.5 µM in assay [4]; under 0.5 µM in assay [5]; over 10 µM in assay [6] (Homo sapiens, TF-1, TF-1 cells).
On to `OC(c1ccc(-n2cc(-c3ccnc4[nH]cnc34)cn2)nc1)(C1CCNCC1)C(F)(F)F` (stereo not drawn) [Example 1135, 1-(6-(4-(3H-imidazo[4,5-b]pyridin-7-yl)-1H-pyrazol-1-yl)pyridin-3-yl)-2,2,2-trifluoro-1-(piperidin-4-yl)ethan-1-ol], for which the IC50 in assay [1] was under 0.1 µM; in assay [2] it was under 0.1 µM; in assay [3] (Homo sapiens), over 10 µM; in assay [4], under 0.1 µM; in assay [5] it was under 0.1 µM; in assay [6] (Homo sapiens, TF-1, TF-1 cells), over 1 µM.
For `CC(NC(=O)Nc1ccc(-c2ccnc3[nH]c(=O)[nH]c23)cc1)C(F)(F)F` (stereo not drawn) [Example 1002, 1-(1,1,1-trifluoropropan-2-yl)-3-(4-(2,3-dihydro-2-oxo-1H-imidazo[4,5-b]pyridin-7-yl)phenyl)urea], the IC50 in assay [1] is under 0.5 µM; in assay [2], under 0.5 µM; in assay [3] (Homo sapiens), over 10 µM; in assay [4], under 0.5 µM; in assay [5], over 0.5 µM; in assay [6] (Homo sapiens, TF-1, TF-1 cells), over 10 µM.
Regarding `N#C[C@H](NC(=O)n1cc(-c2ccnc3[nH]c(=O)[nH]c23)cn1)C1CC1` [Example 1054, N-((R)-cyano(cyclopropyl)methyl)-4-(2,3-dihydro-2-oxo-1H-imidazo[4,5-b]pyridin-7-yl)-1H-pyrazole-1-carboxamide], the IC50 in assay [1] was over 1 µM; in assay [2], over 10 µM; in assay [3] (Homo sapiens) it was 10 µM; in assay [4], over 0.5 µM; in assay [5], over 1 µM; in assay [6] (Homo sapiens, TF-1, TF-1 cells) it was over 1 µM.
Regarding `FC(F)(F)C(Cl)c1ccc(-n2cc(-c3ccnc4[nH]cnc34)cn2)nc1` (stereo not drawn) [Example 1120, 7-(1-(5-(1-chloro-2,2,2-trifluoroethyl)pyridin-2-yl)-1H-pyrazol-4-yl)-3H-imidazo[4,5-b]pyridine], the IC50 was over 0.1 µM in assay [1]; over 0.05 µM in assay [2]; over 10 µM in assay [3] (Homo sapiens); over 0.1 µM in assay [4]; over 1 µM in assay [5]; over 1 µM in assay [6] (Homo sapiens, TF-1, TF-1 cells).
As to `CN1CCN(CCC(c2ccc(-n3cc(-c4ccnc5[nH]cnc45)cn3)nc2)C(F)(F)F)CC1` (stereo not drawn) [Example 1219, 7-(1-(5-(1,1,1-trifluoro-4-(4-methylpiperazin-1-yl)butan-2-yl)pyridin-2-yl)-1H-pyrazol-4-yl)-3H-imidazo[4,5-b]pyridine], the IC50 was under 0.1 µM in assay [1]; under 0.1 µM in assay [2]; over 1 µM in assay [3] (Homo sapiens); under 0.1 µM in assay [4]; over 0.5 µM in assay [5]; over 0.75 µM in assay [6] (Homo sapiens, TF-1, TF-1 cells).
For `O=C(NCC(F)(F)F)n1cc(-c2ccnc3[nH]c(=O)[nH]c23)cn1` [Example 1026, N-(2,2,2-trifluoroethyl)-4-(2,3-dihydro-2-oxo-1H-imidazo[4,5-b]pyridin-7-yl)-1H-pyrazole-1-carboxamide], the IC50 in assay [1] was 0.283 µM; in assay [2], 0.041 µM; in assay [3] (Homo sapiens) it was over 10 µM; in assay [4] it was 0.048 µM; in assay [5], 0.122 µM; in assay [6] (Homo sapiens, TF-1, TF-1 cells), over 1 µM.
With `N#CCc1ccc(-n2cc(-c3ccnc4[nH]cnc34)cn2)cc1` [Example 1099, 2-(4-(4-(3H-imidazo[4,5-b]pyridin-7-yl)-1H-pyrazol-1-yl)phenyl)acetonitrile], the IC50 is under 0.5 µM in assay [1]; under 0.5 µM in assay [2]; over 10 µM in assay [3] (Homo sapiens); under 0.5 µM in assay [4]; over 1 µM in assay [5]; over 1 µM in assay [6] (Homo sapiens, TF-1, TF-1 cells).
Turning to `COC(c1ccc(-n2cc(-c3ccnc4[nH]cnc34)cn2)nc1)(C1CC1)C(F)(F)F` (stereo not drawn) [Example 1127, 7-(1-(5-(1-cyclopropyl-2,2,2-trifluoro-1-methoxyethyl)pyridin-2-yl)-1H-pyrazol-4-yl)-3H-imidazo[4,5-b]pyridine], the IC50 is over 1 µM in assay [1]; over 0.5 µM in assay [2]; over 10 µM in assay [3] (Homo sapiens); over 1 µM in assay [4]; over 1 µM in assay [5]; over 1 µM in assay [6] (Homo sapiens, TF-1, TF-1 cells).
Regarding `CS(=O)(=O)NC(c1ccc(-n2cc(-c3ccnc4[nH]cnc34)cn2)nc1)C(F)(F)F` (stereo not drawn) [Example 1187], the IC50 is under 0.1 µM in assay [1]; under 0.1 µM in assay [2]; over 1 µM in assay [3] (Homo sapiens); over 0.1 µM in assay [4]; over 1 µM in assay [5]; over 1 µM in assay [6] (Homo sapiens, TF-1, TF-1 cells).
Consider `N#CC(c1ccc(-n2cc(-c3ccnc4[nH]cnc34)cn2)cc1)C1CC1` (stereo not drawn) [Example 1100, 2-(4-(4-(3H-imidazo[4,5-b]pyridin-7-yl)-1H-pyrazol-1-yl)phenyl)-2-cyclopropylacetonitrile], for which the IC50 is over 0.5 µM in assay [1]; over 0.5 µM in assay [2]; over 10 µM in assay [3] (Homo sapiens); over 0.5 µM in assay [4]; over 10 µM in assay [5]; over 10 µM in assay [6] (Homo sapiens, TF-1, TF-1 cells).
Take `c1cc(-c2cnn(Cc3cnco3)c2)c2nc[nH]c2n1` [Example 1077, 7-(1-((oxazol-5-yl)methyl)-1H-pyrazol-4-yl)-3H-imidazo[4,5-b]pyridine]: the IC50 in assay [1] was over 1 µM; in assay [2], over 1 µM; in assay [3] (Homo sapiens) it was over 10 µM; in assay [4], over 1 µM; in assay [5], over 10 µM; in assay [6] (Homo sapiens, TF-1, TF-1 cells) it was over 10 µM.
In the case of `O=S1(=O)CCN(Cc2ccc(-n3cc(-c4ccnc5[nH]cnc45)cn3)nc2)CC1` [Example 1086, 4-((6-(4-(3H-imidazo[4,5-b]pyridin-7-yl)-1H-pyrazol-1-yl)pyridin-3-yl)methyl)thiomorpholine 1,1-dioxide], the IC50 was over 0.5 µM in assay [1]; under 0.5 µM in assay [2]; over 10 µM in assay [3] (Homo sapiens); over 0.5 µM in assay [4]; over 10 µM in assay [5]; over 10 µM in assay [6] (Homo sapiens, TF-1, TF-1 cells).
For the molecule `CS(=O)(=O)CCC(C#N)c1ccc(-n2cc(-c3ccnc4[nH]cnc34)cn2)nc1` (stereo not drawn) [Example 1116, 2-(6-(4-(3H-imidazo[4,5-b]pyridin-7-yl)-1H-pyrazol-1-yl)pyridin-3-yl)-4-(methylsulfonyl) butanenitrile], the IC50 is over 0.1 µM in assay [1]; over 0.1 µM in assay [2]; over 10 µM in assay [3] (Homo sapiens); over 0.5 µM in assay [4]; over 1 µM in assay [5]; over 1 µM in assay [6] (Homo sapiens, TF-1, TF-1 cells).
